Legend:
Assay in all cases: Drug affinity chromatography with c-ponatinib and LC-MS/MS (ponatinib interactome)
Format in all cases: binding
[1] = target: T1, proteins of U2OS cell lysate (Homo sapiens, UniProt O75964)
T1 construct: Proteins enriched by c-ponatinib from U2OS cell lysate; endogenous in cells; host or cells: U2OS cell lysate
Method: (§1) Drug affinity chromatography
(§2) U2OS cells were grown until approximately 80% confluent before being pelleted and washed with PBS. Cell pellets were subsequently lysed in buffer A (50 mM Tris pH 7.5, 0.8% v/v NP-40, 5% v/v glycerol, 1.5 mM MgCl2, 100 mM NaCl, 25 mM NaF, 1 mM Na3VO4, 1 mM PMSF, 1mM DTT, 10 μg/mL TLCK, 1 μg/ml Leupeptin, 1 μg/ml Aprotinin, 1 μg/ml soy bean trypsin) and lysates prepared […]
(§3) concentration was determined and lysates stored at -80 °C.
(§4) Briefly, 100 μl of bead slurry (50% in isopropanol) were used for each pulldown experiment. Beads were washed with DMSO (3 × 500 μl), and resuspended in DMSO (50 μl), to which the amine (0.025 μmol) and triethylamine (0.75 μl) were added. The beads were incubated at room temperature for 16 h, and depletion of free amine from the supernatant was determined by LC-MS analysis. Ethanolamine (2.5 μl) was then added to block any unreacted NHS sites, and the beads incubated for a further 16 h. Derivatized beads were then washed with DMSO (3 × 500 μl), buffer A (3 × 1 ml), and incubated with cell lysates (2 mg of protein per pulldown, at 6 […]
(§5) Beads and treated lysates were incubated for 2 h at 4 °C before washing with buffer A (5 ml), Buffer B (50 mM HEPES pH 7.5, 100 mM NaCl, 500 μM EDTA, 2.5 ml), and eluted with formic acid (100 mM, 250 μl). Samples were neutralized with triethylammoniumbicarbonate (TEAB, 1M, 62.5 μl) and stored at -20 °C until preparation for proteomic analysis.
(§6) Samples were reduced with DTT (10 mM final concentration) for 30 min at room temperature, alkylated with iodoacetamide (55 mM final concentration) for 30 min at room temperature, diluted to 300 μl with TEAB, and incubated with trypsin (6 μl, 0.2 mg/ml) overnight at 37 °C. The digests were desalted using SEPAC lite columns (Waters), eluted with 69 % v/v MeCN, 0.1 % v/v FA in H2O (1 ml) and dried in vacuo. Dried peptides were stored at -20 °C before resuspension in 2 % v/v MeCN, 1 % v/v FA in H2O (20 μl) for LC-MS/MS analysis.
(§7) LC-MS/MS data acquisition
(§8) Mass spectrometry data was acquired at the Discovery Proteomics Facility (University of Oxford).
(§9) Digested samples were analyzed by nano-UPLC–MS/MS using a Dionex Ultimate 3000 nano UPLC with EASY spray column (75 μm × 500 mm, 2 μm particle size, Thermo Fisher Scientific) with a 60 min gradient of 0.1 % (v/v) formic acid in 5 % (v/v) DMSO to 0.1 % (v/v) formic acid with 35 % (v/v) acetonitrile in 5 % (v/v) DMSO at a flow rate of approximately 250 nl min−1 (600 bar per 40 °C column temperature). Mass spectrometry data was acquired either with an Orbitrap Q Exactive (Survey scans acquired at a resolution of 70,000 @ 200m/z and the 15 most abundant precursors were selected for HCD fragmentation), or an Orbitrap Q Exactive High Field (HF) instrument (survey scans were […]

[2] = target: T2, proteins of U2OS cell lysate (Homo sapiens, UniProt O95816)
T2 construct: Proteins enriched by c-ponatinib from U2OS cell lysate; endogenous in cells; host or cells: U2OS cell lysate
Method: as §1, §2, §3, §4, §5, §6, §7, §8, §9

[3] = target: T3, proteins of U2OS cell lysate (Homo sapiens, UniProt P06733)
T3 construct: Proteins enriched by c-ponatinib from U2OS cell lysate; endogenous in cells; host or cells: U2OS cell lysate
T3 sequence (P06733 whole entry): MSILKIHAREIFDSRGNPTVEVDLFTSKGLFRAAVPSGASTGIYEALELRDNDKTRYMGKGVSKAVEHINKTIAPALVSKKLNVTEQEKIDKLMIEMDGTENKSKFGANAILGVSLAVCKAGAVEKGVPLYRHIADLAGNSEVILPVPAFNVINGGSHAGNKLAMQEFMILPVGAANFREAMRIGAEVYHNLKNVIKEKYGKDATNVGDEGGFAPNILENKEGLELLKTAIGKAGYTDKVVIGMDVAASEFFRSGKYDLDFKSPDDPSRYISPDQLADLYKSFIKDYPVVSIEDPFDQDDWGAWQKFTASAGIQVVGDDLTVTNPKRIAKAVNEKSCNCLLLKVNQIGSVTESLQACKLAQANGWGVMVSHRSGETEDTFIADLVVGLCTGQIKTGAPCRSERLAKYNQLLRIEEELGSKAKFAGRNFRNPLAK
Method: as §1, §2, §3, §4, §5, §6, §7, §8, §9

[4] = target: T4, proteins of U2OS cell lysate (Homo sapiens, UniProt P07900)
T4 construct: Proteins enriched by c-ponatinib from U2OS cell lysate; endogenous in cells; host or cells: U2OS cell lysate
Method: as §1, §2, §3, §4, §5, §6, §7, §8, §9

[5] = target: T5, proteins of U2OS cell lysate (Homo sapiens, UniProt P14618)
T5 construct: Proteins enriched by c-ponatinib from U2OS cell lysate; endogenous in cells; host or cells: U2OS cell lysate
T5 sequence (P14618 whole entry): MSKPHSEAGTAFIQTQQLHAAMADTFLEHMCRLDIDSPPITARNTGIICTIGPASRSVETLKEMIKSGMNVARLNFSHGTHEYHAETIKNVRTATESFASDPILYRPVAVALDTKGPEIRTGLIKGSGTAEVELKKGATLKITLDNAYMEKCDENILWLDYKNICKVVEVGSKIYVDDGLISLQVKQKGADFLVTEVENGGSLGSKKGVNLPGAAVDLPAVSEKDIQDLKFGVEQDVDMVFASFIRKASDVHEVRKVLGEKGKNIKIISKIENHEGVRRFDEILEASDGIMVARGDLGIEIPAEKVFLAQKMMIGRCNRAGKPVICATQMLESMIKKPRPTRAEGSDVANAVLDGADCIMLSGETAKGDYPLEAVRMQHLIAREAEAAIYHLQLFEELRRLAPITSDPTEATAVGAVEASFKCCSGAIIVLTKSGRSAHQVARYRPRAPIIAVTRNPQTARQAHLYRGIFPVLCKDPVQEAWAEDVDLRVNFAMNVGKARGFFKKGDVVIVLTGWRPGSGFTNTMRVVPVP
Method: as §1, §2, §3, §4, §5, §6, §7, §8, §9

[6] = target: T6, proteins of U2OS cell lysate (Homo sapiens, UniProt P30049)
T6 construct: Proteins enriched by c-ponatinib from U2OS cell lysate; endogenous in cells; host or cells: U2OS cell lysate
Method: as §1, §2, §3, §4, §5, §6, §7, §8, §9

[7] = target: T7, proteins of U2OS cell lysate (Homo sapiens, UniProt P36957)
T7 construct: Proteins enriched by c-ponatinib from U2OS cell lysate; endogenous in cells; host or cells: U2OS cell lysate
T7 sequence (P36957 68-453): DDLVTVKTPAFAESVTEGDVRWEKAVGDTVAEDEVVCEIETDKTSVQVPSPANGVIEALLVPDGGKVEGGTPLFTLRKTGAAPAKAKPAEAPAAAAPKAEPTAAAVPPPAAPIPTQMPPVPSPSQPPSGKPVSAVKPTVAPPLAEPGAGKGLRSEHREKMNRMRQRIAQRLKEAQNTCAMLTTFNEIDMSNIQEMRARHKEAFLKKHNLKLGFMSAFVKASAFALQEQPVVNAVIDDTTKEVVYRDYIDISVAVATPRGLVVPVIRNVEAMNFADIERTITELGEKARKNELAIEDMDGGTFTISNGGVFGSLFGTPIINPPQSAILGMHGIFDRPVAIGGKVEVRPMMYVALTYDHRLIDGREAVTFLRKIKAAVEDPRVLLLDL
Method: as §1, §2, §3, §4, §5, §6, §7, §8, §9

[8] = target: T8, proteins of U2OS cell lysate (Homo sapiens, UniProt P49327)
T8 construct: Proteins enriched by c-ponatinib from U2OS cell lysate; endogenous in cells; host or cells: U2OS cell lysate
T8 sequence (P49327 whole entry): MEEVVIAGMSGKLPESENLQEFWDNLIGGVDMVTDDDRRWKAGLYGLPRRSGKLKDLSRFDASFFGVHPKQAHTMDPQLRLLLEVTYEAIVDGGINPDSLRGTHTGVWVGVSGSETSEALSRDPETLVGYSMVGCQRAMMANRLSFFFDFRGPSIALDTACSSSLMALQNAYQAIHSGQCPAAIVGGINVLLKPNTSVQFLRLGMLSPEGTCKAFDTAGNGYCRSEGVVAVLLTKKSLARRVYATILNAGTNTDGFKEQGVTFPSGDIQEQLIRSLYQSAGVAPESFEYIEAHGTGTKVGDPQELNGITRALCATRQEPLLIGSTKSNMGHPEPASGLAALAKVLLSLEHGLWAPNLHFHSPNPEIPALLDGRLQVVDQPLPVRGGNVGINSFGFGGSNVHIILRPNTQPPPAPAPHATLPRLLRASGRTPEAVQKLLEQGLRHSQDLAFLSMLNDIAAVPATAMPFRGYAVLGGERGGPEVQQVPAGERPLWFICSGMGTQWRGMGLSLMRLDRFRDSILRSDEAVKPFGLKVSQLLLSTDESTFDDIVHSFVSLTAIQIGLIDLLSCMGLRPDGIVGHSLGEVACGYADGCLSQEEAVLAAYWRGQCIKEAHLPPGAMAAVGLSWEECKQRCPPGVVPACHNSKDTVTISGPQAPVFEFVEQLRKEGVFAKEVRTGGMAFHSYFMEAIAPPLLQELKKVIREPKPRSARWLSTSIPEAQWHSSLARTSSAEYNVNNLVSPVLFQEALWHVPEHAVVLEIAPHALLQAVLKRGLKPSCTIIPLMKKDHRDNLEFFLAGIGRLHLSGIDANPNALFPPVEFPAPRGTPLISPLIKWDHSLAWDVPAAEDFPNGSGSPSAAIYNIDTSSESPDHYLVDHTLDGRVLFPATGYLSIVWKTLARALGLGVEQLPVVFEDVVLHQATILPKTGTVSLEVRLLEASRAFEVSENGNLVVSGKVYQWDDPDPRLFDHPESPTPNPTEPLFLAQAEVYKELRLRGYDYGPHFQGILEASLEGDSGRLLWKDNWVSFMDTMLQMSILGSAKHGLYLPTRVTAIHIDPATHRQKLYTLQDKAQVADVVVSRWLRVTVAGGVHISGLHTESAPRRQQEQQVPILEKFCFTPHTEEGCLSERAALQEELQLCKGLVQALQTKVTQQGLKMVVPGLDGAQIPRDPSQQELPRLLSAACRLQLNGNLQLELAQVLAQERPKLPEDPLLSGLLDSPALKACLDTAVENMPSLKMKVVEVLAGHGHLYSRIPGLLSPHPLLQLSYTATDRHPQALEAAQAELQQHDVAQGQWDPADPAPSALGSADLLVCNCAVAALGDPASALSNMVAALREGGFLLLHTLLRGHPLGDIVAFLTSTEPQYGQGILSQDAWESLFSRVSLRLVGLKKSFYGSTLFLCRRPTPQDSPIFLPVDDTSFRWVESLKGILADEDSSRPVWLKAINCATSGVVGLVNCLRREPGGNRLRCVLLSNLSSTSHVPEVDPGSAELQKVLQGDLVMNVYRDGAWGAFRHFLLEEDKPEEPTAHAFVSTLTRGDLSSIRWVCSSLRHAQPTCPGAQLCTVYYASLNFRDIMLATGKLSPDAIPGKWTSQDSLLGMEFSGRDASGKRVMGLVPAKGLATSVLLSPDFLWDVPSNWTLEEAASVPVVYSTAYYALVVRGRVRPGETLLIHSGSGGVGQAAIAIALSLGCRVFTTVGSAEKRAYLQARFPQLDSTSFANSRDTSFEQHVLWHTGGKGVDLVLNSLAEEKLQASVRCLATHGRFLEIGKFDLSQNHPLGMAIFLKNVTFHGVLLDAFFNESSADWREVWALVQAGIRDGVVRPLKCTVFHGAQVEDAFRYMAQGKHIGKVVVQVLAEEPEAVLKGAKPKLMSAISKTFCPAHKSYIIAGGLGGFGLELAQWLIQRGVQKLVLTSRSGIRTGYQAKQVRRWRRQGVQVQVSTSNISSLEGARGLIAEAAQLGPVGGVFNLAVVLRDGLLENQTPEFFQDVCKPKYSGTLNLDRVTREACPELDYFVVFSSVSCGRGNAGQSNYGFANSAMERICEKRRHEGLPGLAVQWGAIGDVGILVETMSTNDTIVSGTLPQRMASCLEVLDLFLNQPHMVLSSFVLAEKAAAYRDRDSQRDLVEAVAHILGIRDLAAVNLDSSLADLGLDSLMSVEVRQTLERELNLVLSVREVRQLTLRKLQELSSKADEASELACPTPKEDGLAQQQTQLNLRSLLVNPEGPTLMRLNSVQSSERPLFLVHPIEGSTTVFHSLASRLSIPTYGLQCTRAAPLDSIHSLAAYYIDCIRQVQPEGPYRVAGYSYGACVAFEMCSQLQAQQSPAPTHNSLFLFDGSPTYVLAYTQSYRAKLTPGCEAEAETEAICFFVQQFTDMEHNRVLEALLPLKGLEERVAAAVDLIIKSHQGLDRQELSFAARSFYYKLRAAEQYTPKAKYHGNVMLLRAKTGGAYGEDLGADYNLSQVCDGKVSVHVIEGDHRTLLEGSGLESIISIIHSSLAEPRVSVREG
Method: as §1, §2, §3, §4, §5, §6, §7, §8, §9

[9] = target: T9, proteins of U2OS cell lysate (Homo sapiens, UniProt P53999)
T9 construct: Proteins enriched by c-ponatinib from U2OS cell lysate; endogenous in cells; host or cells: U2OS cell lysate
Method: as §1, §2, §3, §4, §5, §6, §7, §8, §9

[10] = target: T10, proteins of U2OS cell lysate (Homo sapiens, UniProt P60228)
T10 construct: Proteins enriched by c-ponatinib from U2OS cell lysate; endogenous in cells; host or cells: U2OS cell lysate
T10 sequence (P60228 whole entry): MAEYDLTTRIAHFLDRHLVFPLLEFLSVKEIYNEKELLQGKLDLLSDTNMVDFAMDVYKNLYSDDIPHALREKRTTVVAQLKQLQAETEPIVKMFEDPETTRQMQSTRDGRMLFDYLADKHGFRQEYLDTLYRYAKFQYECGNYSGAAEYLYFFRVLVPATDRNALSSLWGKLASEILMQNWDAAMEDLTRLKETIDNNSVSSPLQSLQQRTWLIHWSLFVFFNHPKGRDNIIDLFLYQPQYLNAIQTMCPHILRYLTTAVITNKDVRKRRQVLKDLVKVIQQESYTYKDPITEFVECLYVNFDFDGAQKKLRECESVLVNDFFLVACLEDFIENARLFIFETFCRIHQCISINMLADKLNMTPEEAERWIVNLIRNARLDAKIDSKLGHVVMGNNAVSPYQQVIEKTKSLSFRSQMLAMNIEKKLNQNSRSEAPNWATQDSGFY
Method: as §1, §2, §3, §4, §5, §6, §7, §8, §9

[11] = target: T11, proteins of U2OS cell lysate (Homo sapiens, UniProt P62701)
T11 construct: Proteins enriched by c-ponatinib from U2OS cell lysate; endogenous in cells; host or cells: U2OS cell lysate
Method: as §1, §2, §3, §4, §5, §6, §7, §8, §9

[12] = target: T12, proteins of U2OS cell lysate (Homo sapiens, UniProt Q03252)
T12 construct: Proteins enriched by c-ponatinib from U2OS cell lysate; endogenous in cells; host or cells: U2OS cell lysate
Method: as §1, §2, §3, §4, §5, §6, §7, §8, §9

[13] = target: T13, proteins of U2OS cell lysate (Homo sapiens, UniProt Q06830)
T13 construct: Proteins enriched by c-ponatinib from U2OS cell lysate; endogenous in cells; host or cells: U2OS cell lysate
T13 sequence (Q06830 whole entry): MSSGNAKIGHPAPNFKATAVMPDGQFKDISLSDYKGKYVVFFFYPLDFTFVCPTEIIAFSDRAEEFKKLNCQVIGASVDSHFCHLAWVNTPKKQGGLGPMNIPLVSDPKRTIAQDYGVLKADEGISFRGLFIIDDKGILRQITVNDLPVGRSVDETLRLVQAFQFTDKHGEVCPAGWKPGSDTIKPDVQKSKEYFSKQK
Method: as §1, §2, §3, §4, §5, §6, §7, §8, §9

[14] = target: T14, proteins of U2OS cell lysate (Homo sapiens, UniProt Q14697)
T14 construct: Proteins enriched by c-ponatinib from U2OS cell lysate; endogenous in cells; host or cells: U2OS cell lysate
Method: as §1, §2, §3, §4, §5, §6, §7, §8, §9

[15] = target: T15, proteins of U2OS cell lysate (Homo sapiens, UniProt Q15459)
T15 construct: Proteins enriched by c-ponatinib from U2OS cell lysate; endogenous in cells; host or cells: U2OS cell lysate
Method: as §1, §2, §3, §4, §5, §6, §7, §8, §9

[16] = target: T16, proteins of U2OS cell lysate (Homo sapiens, UniProt Q9BUF5)
T16 construct: Proteins enriched by c-ponatinib from U2OS cell lysate; endogenous in cells; host or cells: U2OS cell lysate
T16 sequence (Q9BUF5 whole entry): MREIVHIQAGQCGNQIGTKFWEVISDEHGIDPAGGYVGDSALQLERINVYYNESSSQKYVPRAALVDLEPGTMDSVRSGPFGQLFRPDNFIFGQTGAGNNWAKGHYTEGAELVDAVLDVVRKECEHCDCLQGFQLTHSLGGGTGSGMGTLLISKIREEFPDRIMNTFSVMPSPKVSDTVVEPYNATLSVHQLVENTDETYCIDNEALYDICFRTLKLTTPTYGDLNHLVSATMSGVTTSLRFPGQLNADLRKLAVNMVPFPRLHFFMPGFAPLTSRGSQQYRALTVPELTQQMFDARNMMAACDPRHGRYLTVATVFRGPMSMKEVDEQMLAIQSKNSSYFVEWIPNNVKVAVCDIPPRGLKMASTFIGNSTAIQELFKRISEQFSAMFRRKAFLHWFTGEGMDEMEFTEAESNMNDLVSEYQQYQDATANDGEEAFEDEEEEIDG
Method: as §1, §2, §3, §4, §5, §6, §7, §8, §9

[17] = target: T17, proteins of U2OS cell lysate (Homo sapiens, UniProt Q9UBM7)
T17 construct: Proteins enriched by c-ponatinib from U2OS cell lysate; endogenous in cells; host or cells: U2OS cell lysate
Method: as §1, §2, §3, §4, §5, §6, §7, §8, §9

[18] = target: T18, proteins of U2OS cell lysate (Homo sapiens, UniProt Q9UQ35)
T18 construct: Proteins enriched by c-ponatinib from U2OS cell lysate; endogenous in cells; host or cells: U2OS cell lysate
Method: as §1, §2, §3, §4, §5, §6, §7, §8, §9

[19] = target: T19, proteins of U2OS cell lysate (Homo sapiens, UniProt Q9Y6K9)
T19 construct: Proteins enriched by c-ponatinib from U2OS cell lysate; endogenous in cells; host or cells: U2OS cell lysate
Method: as §1, §2, §3, §4, §5, §6, §7, §8, §9

Cc1ccc(C(=O)Nc2ccc(CN3CCN(C)CC3)c(C(F)(F)F)c2)cc1C#Cc1cnc2cccnn12 [PON]
Average LFQ PON_WT ([1]; ATP5L, ATP synthase subunit g, mitochondrial): 22.9891
Average LFQ PON_WT ([2]; BAG2, BAG family molecular chaperone regulator 2): 22.6462
Average LFQ PON_WT ([3]; ENO1, Alpha-enolase): 21.9992
Average LFQ PON_WT ([4]; HSP90AA1, Heat shock protein HSP 90-alpha): 21.9345
Average LFQ PON_WT ([5]; PKM, Pyruvate kinase PKM): 21.567
Average LFQ PON_WT ([6]; ATP5D, ATP synthase subunit delta, mitochondrial): 23.0608
Average LFQ PON_WT ([7]; DLST, Dihydrolipoyllysine-residue succinyltransferase component of 2-oxoglutarate dehydrogenase complex, mitochondrial): 21.6592
Average LFQ PON_WT ([8]; FASN, Fatty acid synthase): 22.4378
Average LFQ PON_WT ([9]; SUB1, Activated RNA polymerase II transcriptional coactivator p15): 22.9694
Average LFQ PON_WT ([10]; EIF3E, Eukaryotic translation initiation factor 3 subunit E): 22.7111
Average LFQ PON_WT ([11]; RPS4X, 40S ribosomal protein S4, X isoform): 22.7536
Average LFQ PON_WT ([12]; LMNB2, Lamin-B2): 22.9109
Average LFQ PON_WT ([13]; PRDX1, Peroxiredoxin-1): 22.2382
Average LFQ PON_WT ([14]; GANAB, Neutral alpha-glucosidase AB): 22.2601
Average LFQ PON_WT ([15]; SF3A1, Splicing factor 3A subunit 1): 21.9763
Average LFQ PON_WT ([16]; TUBB6, Tubulin beta-6 chain): 22.6671
Average LFQ PON_WT ([17]; DHCR7, 7-dehydrocholesterol reductase): 21.6093
Average LFQ PON_WT ([18]; SRRM2, Serine/arginine repetitive matrix protein 2): 21.862
Average LFQ PON_WT ([19]; IKBKG, NF-kappa-B essential modulator): 21.7256

Cc1ccc(C(=O)Nc2ccc(CN3CCN(CCCN)CC3)c(C(F)(F)F)c2)cc1C#Cc1cnc2cccnn12 [c-ponatinib, reference compound]
Average LFQ intensity ([1]; captured protein ATP5L, Rank 125): 22.9891
Average LFQ intensity ([2]; captured protein BAG2, Rank 152): 22.6462
Average LFQ intensity ([3]; captured protein ENO1, Rank 190): 21.9992
Average LFQ intensity ([4]; captured protein HSP90AA1, Rank 195): 21.9345
Average LFQ intensity ([5]; captured protein PKM, Rank 224): 21.567
Average LFQ intensity ([6]; captured protein ATP5D, Rank 121): 23.0608
Average LFQ intensity ([7]; captured protein DLST, Rank 218): 21.6592
Average LFQ intensity ([8]; captured protein FASN, Rank 161): 22.4378
Average LFQ intensity ([9]; captured protein SUB1, Rank 126): 22.9694
Average LFQ intensity ([10]; captured protein EIF3E, Rank 148): 22.7111
Average LFQ intensity ([11]; captured protein RPS4X, Rank 140): 22.7536
Average LFQ intensity ([12]; captured protein LMNB2, Rank 128): 22.9109
Average LFQ intensity ([13]; captured protein PRDX1, Rank 177): 22.2382
Average LFQ intensity ([14]; captured protein GANAB, Rank 172): 22.2601
Average LFQ intensity ([15]; captured protein SF3A1, Rank 193): 21.9763
Average LFQ intensity ([16]; captured protein TUBB6, Rank 151): 22.6671
Average LFQ intensity ([17]; captured protein DHCR7, Rank 220): 21.6093
Average LFQ intensity ([18]; captured protein SRRM2, Rank 197): 21.862
Average LFQ intensity ([19]; captured protein IKBKG, Rank 212): 21.7256

Reference: paper PMC6120666 (The EMBO Journal, 2018)
